{"source": "patent US11872222B2", "about": "“Uses” (NeRRe Therapeutics Limited, priority 2020, dated 2024)", "key": {"[1]": {"system": "VILI mouse model of mechanical injury to the lungs", "test": "VILI mouse model: bronchoalveolar lavage fluid (BAL) markers", "type": "in vivo", "details": "male C57/BL6 mice, oral 250 mg/kg pre-treatment, high tidal volume ventilation; FIG. 3", "experimental": "(§1) Orvepitant was evaluated in a VILI mouse model of mechanical injury to the lungs. Male C57/BL6 mice were pre-treated with oral orvepitant (250 mg/kg) or vehicle control (10 ml/kg, 0.1% tween 80:0.5% hydroxypropyl methylcellulose [HPMC]), approximately 30 minutes before initiation of experimental ventilation. Mice were anesthetized and tracheotomised for ventilation. The left carotid artery was cannulated to monitor blood pressure (BP), infuse heparinised saline (0.4 ml/hr of 10 units/ml of heparin), and measure sequential blood gas analyses. Airway pressure was monitored continuously, while respiratory mechanics including respiratory resistance (Rrs) and elastance (Ers), were measured at predetermined intervals by end-inflation occlusion. Vehicle-treated or orvepitant-treated animals were ventilated with high tidal volume (33-37 ml/kg) for up to 150 minutes or until a mortality surrogate (increase of >25% peak inspiratory pressure) was reached. As a control group, vehicle-treated animals only were ventilated with low tidal volume (8-9 ml/kg) to confirm the impact of injurious ventilation. Following termination, bronchoalveolar lavage fluid (BAL) was collected for analysis and lungs were processed for flow cytometric evaluation of leukocyte numbers and expression of ICAM-1 on alveolar macrophages and epithelial cells. Data were evaluated for normality by Shapiro-Wilk test of residuals and QQ plots. Normally distributed data were evaluated by t-test for end-point analysis, or 2-way ANOVA for time courses. Non-normally distributed data were evaluated by Mann-Whitney U test. N=6-7 animals for each dataset. Bronchoalveolar lavage fluid (BAL) markers. BAL total protein concentration was measured as a marker of alveolar-epithelial barrier permeability."}, "[2]": {"system": "VILI mouse model of mechanical injury to the lungs", "test": "VILI mouse model: physiological variables (peak inspiratory pressure, elastance)", "type": "in vivo, mice", "experimental": "Orvepitant was evaluated in a VILI mouse model of mechanical injury to the lungs.\nMale C57/BL6 mice were pre-treated with oral orvepitant (250 mg/kg) or vehicle control (10 ml/kg, 0.1% tween 80:0.5% hydroxypropyl methylcellulose [HPMC]), approximately 30 minutes before initiation of experimental ventilation.\nMice were anesthetized and tracheotomised for ventilation. The left carotid artery was cannulated to monitor blood pressure (BP), infuse heparinised saline (0.4 ml/hr of 10 units/ml of heparin), and measure sequential blood gas analyses. Airway pressure was monitored continuously, while respiratory mechanics including respiratory resistance (Rrs) and elastance (Ers), were measured at predetermined intervals by end-inflation occlusion. Vehicle-treated or orvepitant-treated animals were ventilated with high tidal volume (33-37 ml/kg) for up to 150 minutes or until a mortality surrogate (increase of >25% peak inspiratory pressure) was reached. As a control group, vehicle-treated animals only were ventilated with low tidal volume (8-9 ml/kg) to confirm the impact of injurious ventilation. Following termination, bronchoalveolar lavage fluid (BAL) was collected for analysis and lungs were processed for flow cytometric evaluation of leukocyte numbers and expression of ICAM-1 on alveolar macrophages and epithelial cells.\nData were evaluated for normality by Shapiro-Wilk test of residuals and QQ plots. Normally distributed data were evaluated by t-test for end-point analysis, or 2-way ANOVA for time courses. Non-normally distributed data were evaluated by Mann-Whitney U test. N=6-7 animals for each dataset."}, "[3]": {"system": "VILI mouse model of mechanical injury to the lungs", "test": "VILI mouse model: flow cytometric analyses of lung cell suspensions (leukocyte numbers, ICAM-1 surface expression)", "type": "in vivo", "details": "male C57/BL6 mice, oral 250 mg/kg pre-treatment, high tidal volume ventilation, flow cytometry, FIG. 2", "experimental": "as §1, with “Flow cytometric analyses. Lung cell suspensions were evaluated for quantification of neutrophils and Ly6C high inflammatory (Ly6CN) monocytes by flow cytometry. […] Activation of alveolar macrophages and type 1 and type 2 epithelial cells” for “Bronchoalveolar lavage fluid (BAL) markers. BAL total protein concentration”, “determined by assaying for surface expression” for “measured as a marker”, “ICAM-1.” for “alveolar-epithelial barrier permeability.”"}}}
{"compound": "Cc1cc(F)ccc1[C@H]1C[C@@H](N2CCN3C(=O)CC[C@H]3C2)CCN1C(=O)N(C)[C@H](C)c1cc(C(F)(F)F)cc(C(F)(F)F)c1", "note": "[orvepitant]", "values": [{"measurement": "Increase in BAL IL-6", "setting": "[1]", "value": "significantly attenuated"}, {"measurement": "Increase in BAL MCP-1 [CCL-2]", "setting": "[1]", "value": "significantly attenuated"}, {"measurement": "Increase in BAL TGF-β", "setting": "[1]", "value": "significantly attenuated"}, {"measurement": "Increase in BAL total protein concentration (marker of alveolar-epithelial barrier permeability)", "setting": "[1]", "value": "significantly attenuated"}, {"measurement": "Peak inspiratory pressure at the start of ventilation", "setting": "[2]; male C57/BL6 mice, oral 250 mg/kg approx. 30 min before ventilation, vs vehicle", "value": "identical between vehicle and orvepitant pre-treated animals"}, {"measurement": "Course of peak inspiratory pressure change over time", "setting": "[2]; male C57/BL6 mice, oral 250 mg/kg pre-treatment, high tidal volume (33-37 ml/kg) ventilation up to 150 min, vs vehicle, FIG. 1", "value": "significantly different between groups"}, {"measurement": "'End' peak inspiratory pressure (final value recorded)", "setting": "[2]; male C57/BL6 mice, oral 250 mg/kg pre-treatment, high tidal volume ventilation, 150 min or mortality surrogate, vs vehicle, FIG. 1", "value": "significantly higher in vehicle-treated animals than those receiving orvepitant"}, {"measurement": "Changes in respiratory system elastance over time", "setting": "[2]; male C57/BL6 mice, oral 250 mg/kg pre-treatment, high tidal volume ventilation, vs vehicle, FIG. 1", "value": "differences between groups did not quite achieve statistical significance"}, {"measurement": "Mechanical lung injury induced by mechanical ventilation (overall conclusion)", "setting": "[2]; mice, oral pretreatment", "value": "substantial, significant attenuation"}, {"measurement": "Ly6C high inflammatory monocyte numbers within lung tissue", "setting": "[3]; vs vehicle", "value": "significant decrease"}, {"measurement": "Neutrophil numbers within lung tissue", "setting": "[3]; vs vehicle", "value": "significant decrease"}, {"measurement": "Upregulation of ICAM-1 surface expression on alveolar macrophages", "setting": "[3]", "value": "significantly attenuated"}, {"measurement": "Upregulation of ICAM-1 surface expression on type 1 epithelial cells", "setting": "[3]", "value": "significantly attenuated"}, {"measurement": "Upregulation of ICAM-1 surface expression on type 2 epithelial cells", "setting": "[3]", "value": "significantly attenuated"}]}
